Assay results reported in US20240352412A1, “METHODS AND SYSTEMS FOR EXTENDED CULTURE OF HUMAN BLASTOIDS TO POST-IMPLANTATION STAGES ON 3D MATRICES” (Washington University, priority 2023, published 2024).
“Also recorded” adds a separate entry of the source.

Tests used:
[1] = test system: 3D-cultured human blastoids (WIBR3 OCT4-GFP background); experiment: Post implantation WNT modulation of 3D-cultured blastoids; assay type: cell-based; settings: for OCT4-GFP reporter area (ratio of OCT4-GFP area: total blastoid area; EPI compartment) / OCT4-GFP signal intensity / invasive trophoblast projections / overall blastoid size (area): 2 μM in N2B27+E2, D8 to D14, 3D ECM, analysed at D14, vs control; for CTB shell: 2 μM, 6 days of treatment, D14 of 3D culture
Text: Blastoids can be transferred on either day 7 or day 8 of growth. Due to the inaccessibility of commercially available extracellular matrix products during the experimentation phases of this project, multiple matrices were utilized in this study-hESC qualified growth factor-reduced Matrigel (Corning), hESC qualified growth factor reduced Geltrex (Gibco), and Cultrex UltriMatrix reduced growth factor basement membrane extract (R&D, BME001). […] Matrices were thawed on ice and kept cold until crosslinking was desired. Matrices mixed together (Matrigel/geltrex) were mixed following thawing and plated into ibidi microwells (120 μL/well) (ibidi, 80826) or alternatively 96 well plates (40 μL/well). Matrices were solidified at 37° C. for 30 minutes. Wash matrices 2 times with DMEM/F12 before adding blastoids. Add N2B27+10 nM estradiol without antibiotics to each well. Plate desired numbers of blastoids to each well (3-5 in an ibidi microwell, 1-2 in a 96 well plate). Place the plate in the incubator (37° C., 5% CO2, 5% 02) for 24 hours. Replace media daily with N2B27+10 nM estradiol without antibiotics. If blastoids are added at 7 days, the following day they may be loosely attached. Wait approximately 28-30 hours following seeding to ensure blastoids are well anchored before changing medium. Polar TE side attaches and the ICM expands compared to the day before when properly attached. On the following day (day 9) the TE collapses. Migratory EVT emerge at day 13. Maintaining proper pH is important for blastoids post implantation, the medium should be at pH=7.2-7.4 by pre-equilibration in the incubator or use freshly made N2B27 that has not oxidized too excessively (media should be pink/orange in color, never purple). WIBR3 OCT4-GFP blastoids were grown to 7 days in blastoid generating conditions (see above) and blastoids with localized single ICM, continuous trophectoderm, and with a round blastocoel cavity were chosen by hand and plated upon a pre-formed 3D matrix (Cultrex UltriMatrix) formed with a 96 well plate (40 μL of Cultrex per well). 2 blastoids per well were plated among 10 wells for each condition in N2B27+1 mM Na Pyruvate+10 nM Estradiol (E2). Blastoids were allowed to attach for approximately 24-30 hours in the incubator (5% CO2, 5% O2, 37° C., 100% humidity). When blastoids attached, TE collapsed, and ICM expanded, medium was changed to N2B27+1 mM Na Pyruvate+10 nM E2+2 μM XAV939 or +2 μM CHIR99021. Media was changed daily and grown in a 37° C., 5% CO2, 5% O2 incubator. Blastoids were fixed in 4% paraformaldehyde as described above on day 14 of total blastoid growth.

[2] = test system: WIBR3 OCT4-GFP naïve hPSCs; experiment: Blastoid formation (cavitation) from 5i/L/A naïve hPSCs in Aggrewells; assay type: cell-based, human; settings: for rate of cavitation on omission of the component from the blastoid media: component omitted/removed (Conditions 2-4), D7
Description: Naïve hPSCs were dissociated with Accutase for 5 minutes at 37° C. Single cell dissociate naïve stem cells and inactivate accutase enzymes with fibroblast medium. Centrifuge this suspension 1000 rpm for 5 minutes. Remove supernatant and wash once with DMEM/F12, centrifuge 1000 rpm for 5 minutes. Aspirate supernatant and resuspend in 2 mL of 5i/L/A medium. Remove iMEFs from the cell suspension by incubation on gelatin-coated plates for 30-45 minutes at 37° C. 5% CO2. Collect cells and count cells to plate 100,000 cells per 24 well Aggrewell (StemCell Technologies) well. Coat the aggrewells with Anti-adherence solution (StemCell Technologies) for 10 minutes at room temperature. Wash wells once with DMEM/F12, then add 1 mL of 5i/L/A medium. Add naïve stem cells to Aggrewells, 100,000 cells per 500 μL, total medium should be 1.5 mL per well. Centrifuge the plate 1000 rpm for 2 minutes for equal distribution of cell number per microwell. Incubate at 37° C. 5% CO2 and 5% 02 for one day. […]
Cavitation rate was determined by counting individual aggregates at 7 days of blastoid growth in at least 3 24-well wells per condition. Tile scan images of the entire well were stitched together and aggregates vs. cavitated aggregates were manually counted in ImageJ. […] Significance determined by a 1-way ANOVA with multiple comparisons. *p<0.05, **p<0.01.
Blastoid size was determined with ImageJ software by drawing a circle around the entire blastoid, and diameters determined by a single line drawn across the widest apparent part of the blastoid (day 7 n=1901; day 8 n=18). Inner cell mass size was determined by utilizing the OCT4-GFP channel and manually drawing around the brightest region of GFP+ areas (control n=152 blastoids; —CHIR n=130). Significance determined with Welch's t-test, ****p<0.0001.

| Molecule | OCT4-GFP reporter area (ratio of OCT4-GFP area: total blastoid area; EPI compartment) [1] | OCT4-GFP signal intensity [1] | invasive trophoblast projections [1] | overall blastoid size (area) [1] | CTB shell [1] | TE expansion (ICM:TE ratio based on OCT4-GFP reporter activity) on omission of the component ([2]; component omitted (Condition 2)) | rate of cavitation on omission of the component from the blastoid media [2] |
| --- | --- | --- | --- | --- | --- | --- | --- |
| Cc1c[nH]c(-c2cnc(NCCNc3ccc(C#N)cn3)nc2-c2ccc(Cl)cc2Cl)n1 [CHIR99021] | reduced ratio of OCT4-GFP+ cells | diminished intensity of OCT4-GFP reporter activity | significantly fewer invasive trophoblast projections | larger; also recorded: increased | expansion of the CTB shell | specifically promotes TE expansion | enhanced the rate of cavitation |
| Oc1nc(-c2ccc(C(F)(F)F)cc2)nc2c1CSCC2 [XAV939] | notable expansion | increase in signal intensity | significantly fewer invasive trophoblast projections | reduced | reduction of the CTB shell |  |  |
| LIF: recombinant human leukemia inhibitory factor (PeproTech) |  |  |  |  |  |  | without adversely affecting the rate of cavitation |
